Read-outs that look alike come from different tables or passages of the source.
Tests used:
mouse = assay: observation for neurotoxicity symptoms (motility, muscle tonus, respiratory frequency, body temperature, general behaviour); format: in vivo
Experimental: During the experiments described above, the animals were observed during the whole of the experimental period (up to 4 hours) for signs of substance-caused changes of behaviour and neurotoxicity (motility, muscle tonus, respiratory frequency, body temperature and general behaviour).

[1] = system: maximum electroshock spasm (MES), extensor spasm in mice; assay: MES test (maximum electroshock; inhibition of extensor spasm); format: in vivo, male mice (NMRI); conditions: Mus musculus; for ED50: read-out: ED 50 values
Source text: For the determination of the anticonvulsive/anti-epileptic activity of the substances according to the present invention the method described by E. A. Swinyard et al., J. Pharmacol. exp. Therapeut. 106, 319-330 (1952) and by L. A. Woodbury et al., Arch. int. Pharmacodyn., 92, 97-107 (1952) was used. To male mice (NMRI) with a body weight of 20-25 g via corneal electrodes, an alternating current of 50 Hz and 50 mA is applied for 0.2 sec. (HSE-shock stimulation apparatus; type 207). The maximum electroshock spasm (MES) consists of a tonic extension of the rear extremities, the clonic twitch and loss of consciousness. The activity criterion is taken as being the inhibition of the extensor spasm by the substances according to the present invention. Before the experiments the mice had free access to feed and water. The test substances were administered orally as suspensions in 0.2% agar by stomach tubes; the control animals received adequate volumes of agar. 1 hour and 3 hours after administration the test for protective action against MES was carried out.
As percentage action the percentage proportion of those animals which in the MES test were protected 100% against the extensor spasm is given. 10 animals were used per test.
The ED 50 values were determined according to Lichtfield and Wilcoxon J. Pharmacol. exp. Therapeut. 96, 99 (1949) in each case with 4 to 5 animal groups each of 8-10 animals per dosage stage.

[2] = system: maximum electroshock spasm (MES), extensor spasm in mice; assay: as above; format: in vivo, male mice (NMRI); conditions: Mus musculus, ip, 1 h, read-out: protective action [%] after 1 hr
[3] = po, 1 h, oral, 1 hr after administration, n = 10, read-out: protective action [%] after 1 hr
[4] = po, 3 h, oral, 3 hrs after administration, n = 10, read-out: protective action [%] after 3 hrs

CCC1(C)CC(=O)NC1=O (stereo not drawn) [ethosuximide, reference compound]
Neurotoxic limiting dose in the mouse, dose p.o. (mouse; in vivo, po): 500 mg/kg
responders at 100 mg/kg ([1]; po, 1 h, 100 mg/kg, oral, 1 hr after administration, n = 10, read-out: protective action [%] after 1 hr): 0%
responders at 100 mg/kg ([1]; po, 3 h, 100 mg/kg, oral, 3 hrs after administration, n = 10, read-out: protective action [%] after 3 hrs): 0%
ED50 ([1]; po, 4 h, MES test, oral, ** 4 hours after administration): > 250 mg/kg

O=C1NC(=O)C(c2ccccc2)(c2ccccc2)N1 [phenytoin, diphenylhydantoin, reference compound]
Neurotoxic limiting dose in the mouse, dose p.o. (mouse; in vivo, po): 100 mg/kg
responders at 50 mg/kg [1, 3]: 100%
ED50 ([1]; po, 1 h, MES test, oral, 1 hour after administration): 9.1 mg/kg
responders at 50 mg/kg [1, 4]: 100%

NC(=O)N1c2ccccc2C=Cc2ccccc21 [carbamazepine, reference compound]
Neurotoxic limiting dose in the mouse, dose p.o. (mouse; in vivo, po): 100 mg/kg
responders at 50 mg/kg [1, 3]: 100%
responders at 50 mg/kg [1, 4]: 100%

CCCC(CCC)C(=O)O [valproic acid, reference compound]
Neurotoxic limiting dose in the mouse, dose p.o. (mouse; p.o.): 350 mg/kg
responders at 100 mg/kg [2]: 0%
ED50 ([1]; ip, 1 h): 205 mg/kg
responders at 100 mg/kg ([1]; ip, 3 h, read-out: protective action [%] after 3 hrs): 0%
